Data taken from PubChem BioAssay (NCI).
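Compound exposure: 48 hours, 5 concentrations, 96-well plates. At the TGI there is no net growth.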

How the values were obtained:
Experiment in all cases: DTP human tumour cell line panel, 48 h
DU-145 prostate = tested on: DU-145 prostate
RXF 393 renal = tested on: RXF 393 renal
SN12C renal = tested on: SN12C renal
HCC-2998 colon = tested on: HCC-2998 colon
HT29 colon = tested on: HT29 colon
CCRF-CEM leukemia = tested on: CCRF-CEM leukemia
SF-539 CNS = tested on: SF-539 CNS
NCI/ADR-RES ovarian = tested on: NCI/ADR-RES ovarian
EKVX NSCLC = tested on: EKVX NSCLC
KM20L2 colon = tested on: KM20L2 colon
SNB-78 CNS = tested on: SNB-78 CNS
KM12 colon = tested on: KM12 colon
SK-OV-3 ovarian = tested on: SK-OV-3 ovarian
UACC-257 melanoma = tested on: UACC-257 melanoma
A549 NSCLC = tested on: A549 NSCLC
MALME-3M melanoma = tested on: MALME-3M melanoma
UACC-62 melanoma = tested on: UACC-62 melanoma
OVCAR-3 ovarian = tested on: OVCAR-3 ovarian
MDA-MB-231 breast = tested on: MDA-MB-231 breast
HCT-15 colon = tested on: HCT-15 colon
ACHN renal = tested on: ACHN renal
HOP-92 NSCLC = tested on: HOP-92 NSCLC
786-0 renal = tested on: 786-0 renal
NCI-H460 lung = tested on: NCI-H460 lung
SK-MEL-2 melanoma = tested on: SK-MEL-2 melanoma
T-47D breast = tested on: T-47D breast
OVCAR-5 ovarian = tested on: OVCAR-5 ovarian
SK-MEL-28 melanoma = tested on: SK-MEL-28 melanoma
SF-268 CNS = tested on: SF-268 CNS
M19-MEL melanoma = tested on: M19-MEL melanoma
NCI-H522 lung = tested on: NCI-H522 lung
HOP-62 NSCLC = tested on: HOP-62 NSCLC
SW-620 colon = tested on: SW-620 colon
OVCAR-8 ovarian = tested on: OVCAR-8 ovarian
IGROV1 ovarian = tested on: IGROV1 ovarian
HCT-116 colon = tested on: HCT-116 colon
RPMI-8226 leukemia = tested on: RPMI-8226 leukemia
NCI-H226 lung = tested on: NCI-H226 lung
MDA-MB-435 = tested on: MDA-MB-435
SF-295 CNS = tested on: SF-295 CNS
UO-31 renal = tested on: UO-31 renal
PC-3 prostate = tested on: PC-3 prostate
TK-10 renal = tested on: TK-10 renal
SK-MEL-5 melanoma = tested on: SK-MEL-5 melanoma
HS 578T breast = tested on: HS 578T breast
OVCAR-4 ovarian = tested on: OVCAR-4 ovarian
K-562 leukemia = tested on: K-562 leukemia
U251 CNS = tested on: U251 CNS
LXFL 529 NSCLC = tested on: LXFL 529 NSCLC
NCI-H23 lung = tested on: NCI-H23 lung
MCF7 breast = tested on: MCF7 breast
CAKI-1 renal = tested on: CAKI-1 renal
SR leukemia = tested on: SR leukemia
DLD-1 colon = tested on: DLD-1 colon
SNB-19 CNS = tested on: SNB-19 CNS
LOX IMVI melanoma = tested on: LOX IMVI melanoma
MOLT-4 leukemia = tested on: MOLT-4 leukemia
DMS 273 small cell lung = tested on: DMS 273 small cell lung
BT-549 breast = tested on: BT-549 breast
A498 renal = tested on: A498 renal
SNB-75 CNS = tested on: SNB-75 CNS

NC(=O)N=C(N(Cc1ccccc1)Cc1ccccc1)N(Cc1ccccc1)Cc1ccccc1
TGI (DU-145 prostate): > 100 µM | TGI (RXF 393 renal): > 100 µM | TGI (SN12C renal): > 100 µM | TGI (HCC-2998 colon): > 100 µM | TGI (HT29 colon): > 100 µM | TGI (CCRF-CEM leukemia): > 100 µM | TGI (SF-539 CNS): > 100 µM | TGI (NCI/ADR-RES ovarian): > 100 µM | TGI (EKVX NSCLC): > 100 µM | TGI (KM20L2 colon): > 100 µM | TGI (SNB-78 CNS): > 100 µM | TGI (KM12 colon): > 100 µM | TGI (SK-OV-3 ovarian): > 100 µM | TGI (UACC-257 melanoma): > 100 µM | TGI (A549 NSCLC): > 100 µM | TGI (MALME-3M melanoma): > 100 µM | TGI (UACC-62 melanoma): > 100 µM | TGI (OVCAR-3 ovarian): > 100 µM | TGI (MDA-MB-231 breast): > 100 µM | TGI (HCT-15 colon): > 100 µM | TGI (ACHN renal): > 100 µM | TGI (HOP-92 NSCLC): > 64.8 µM | TGI (786-0 renal): > 100 µM | TGI (NCI-H460 lung): > 100 µM | TGI (SK-MEL-2 melanoma): > 100 µM | TGI (T-47D breast): > 100 µM | TGI (OVCAR-5 ovarian): > 100 µM | TGI (SK-MEL-28 melanoma): > 100 µM | TGI (SF-268 CNS): > 100 µM | TGI (M19-MEL melanoma): > 100 µM | TGI (NCI-H522 lung): > 100 µM | TGI (HOP-62 NSCLC): > 65.8 µM | TGI (SW-620 colon): > 100 µM | TGI (OVCAR-8 ovarian): > 100 µM | TGI (IGROV1 ovarian): > 100 µM | TGI (HCT-116 colon): > 100 µM | TGI (RPMI-8226 leukemia): > 100 µM | TGI (NCI-H226 lung): > 100 µM | TGI (MDA-MB-435): > 100 µM | TGI (SF-295 CNS): 35.1 µM | TGI (UO-31 renal): > 100 µM | TGI (PC-3 prostate): > 100 µM | TGI (TK-10 renal): > 100 µM | TGI (SK-MEL-5 melanoma): > 100 µM | TGI (HS 578T breast): > 100 µM | TGI (OVCAR-4 ovarian): > 75.6 µM | TGI (K-562 leukemia): > 100 µM | TGI (U251 CNS): > 63.7 µM | TGI (LXFL 529 NSCLC): > 100 µM | TGI (NCI-H23 lung): > 100 µM | TGI (MCF7 breast): > 100 µM | TGI (CAKI-1 renal): > 100 µM | TGI (SR leukemia): > 100 µM | TGI (DLD-1 colon): > 100 µM | TGI (SNB-19 CNS): > 100 µM | TGI (LOX IMVI melanoma): > 100 µM | TGI (MOLT-4 leukemia): > 100 µM | TGI (DMS 273 small cell lung): > 100 µM | TGI (BT-549 breast): > 100 µM | TGI (A498 renal): > 100 µM | TGI (SNB-75 CNS): 81.8 µM
